Test results: ChEMBL document CHEMBL3763135, “Synthesis and evaluation of thiophene-based guanylhydrazones (iminoguanidines) efficient against panel of voriconazole-resistant fungal isolates” (Bioorg Med Chem, 2016)
Calls of active or inactive are those of the source. The calls are words filed in the database; no cut-off is given here.

How the values were obtained:
[1] = Hemolytic effect in sheep RBC assessed as release of hemoglobin at 40 ug/ml after 1 hr; format: ADME, cell-based, Ovis aries; settings: erythrocyte
[2] = Hemolytic effect in sheep RBC assessed as release of hemoglobin at 25 ug/ml after 1 hr; format: ADME, cell-based, Ovis aries, Erythrocyte; settings: sheep red blood cells, read-out: Activity
Candida albicans [3] = assay: Antifungal activity against Candida albicans CA5 by broth dilution method; format: functional
Pichia kudriavzevii [4] = assay: Antibiofilm activity against Pichia kudriavzevii ATCC 34135 assessed as disruption of preformed biofilm after 24 hrs by concanavalin A-FITC-staining based fluorescence microscopic analysis; format: functional
Candida albicans [5] = assay: Antibiofilm activity against Candida albicans ATCC 10231 assessed as disruption of preformed biofilm after 24 hrs by concanavalin A-FITC-staining based fluorescence microscopic analysis; format: functional
MRC5 = assay: Cytotoxicity against human MRC5 cells after 48 hrs by MTT assay; format: cell-based; settings: MRC5, 48 h
Candida parapsilosis [6] = assay: Antibiofilm activity against Candida parapsilosis C27 assessed as disruption of preformed biofilm after 24 hrs by concanavalin A-FITC-staining based fluorescence microscopic analysis; format: functional
Candida albicans [7] = assay: Antibiofilm activity against Candida albicans assessed as inhibition of Spider medium-induced hyphae formation at sub-MIC after 24 hrs by propidium iodide and FITC-conjugated concanavaline A staining based fluorescence microscopy; format: functional, organism-based
Candida albicans [8] = assay: Induction of DNA intercalation with Candida albicans genomic DNA at 25 ug/ml after 12 hrs by ethidium bromide staining based gel electrophoresis method
Candida albicans [9] = assay: Antifungal activity against Candida albicans ATCC 10231 by broth dilution method; format: functional
Fusarium oxysporum = assay: Antifungal activity against Fusarium oxysporum AB18 by broth dilution method; format: functional
Microsporum canis = assay: Antifungal activity against Microsporum canis DMT2 by broth dilution method; format: functional
Aspergillus fumigatus = assay: Antifungal activity against Aspergillus fumigatus ATCC 13073 by broth dilution method; format: functional
Pichia kudriavzevii [10] = assay: Antifungal activity against Candida krusei ATCC 34135 by broth dilution method; format: functional
[11] = system: Trichophyton mentagrophytes; assay: Antifungal activity against Trichophyton mentagrophytes DMT4 by broth dilution method; format: functional
Candida parapsilosis [12] = assay: Antifungal activity against Candida parapsilosis C27 by broth dilution method; format: functional; settings: Lodderomyces parapsilosis

| MIC (Candida albicans [3]) [µg/mL] | Activity (Candida albicans [8]) | MIC (Candida albicans [9]) [µg/mL] | MIC (Fusarium oxysporum) [µg/mL] | MIC (Microsporum canis) [µg/mL] | MIC (Aspergillus fumigatus) [µg/mL] | MIC (Pichia kudriavzevii [10]) [µg/mL] | MIC [11] [µg/mL] | MIC (Candida parapsilosis [12]) [µg/mL] | Compound | Activity [1] [%] | hemolysis at 1 h, 25 ug/ml [2] [%] | MBEC (Pichia kudriavzevii [4]) [µg/mL] | MBEC (Candida albicans [5]) [µg/mL] | IC50 (MRC5) [µg/mL] | MBEC (Candida parapsilosis [6]) [µg/mL] | Activity (Candida albicans [7]) |
| --- | --- | --- | --- | --- | --- | --- | --- | --- | --- | --- | --- | --- | --- | --- | --- | --- |
|  |  |  |  |  |  |  |  |  | NYSTATIN | 35 |  |  |  |  |  |  |
| 125 | Active | 15.6 | > 250 | 125 | 250 | > 250 | 25 | > 250 | Cl.Cl.N=C(N)N/N=C/c1ccc(-c2ccncc2)s1 |  | 20 | >1000 | 1000 | 25 | >1000 | Active |
